Reference: ChEMBL document CHEMBL1144322, “Structure-based design of potent and selective inhibitors of collagenase-3 (MMP-13)” (Bioorg Med Chem Lett, 2005)

What was measured:
Collagenase 3 [1] = biological target: T1, Collagenase 3 (Homo sapiens, UniProt P45452); test: Inhibition of matrix metalloprotease-13
Interstitial collagenase = biological target: T2, Interstitial collagenase (Homo sapiens, UniProt P03956); test: Inhibition of matrix metalloprotease-1
T2 sequence (P03956 whole entry): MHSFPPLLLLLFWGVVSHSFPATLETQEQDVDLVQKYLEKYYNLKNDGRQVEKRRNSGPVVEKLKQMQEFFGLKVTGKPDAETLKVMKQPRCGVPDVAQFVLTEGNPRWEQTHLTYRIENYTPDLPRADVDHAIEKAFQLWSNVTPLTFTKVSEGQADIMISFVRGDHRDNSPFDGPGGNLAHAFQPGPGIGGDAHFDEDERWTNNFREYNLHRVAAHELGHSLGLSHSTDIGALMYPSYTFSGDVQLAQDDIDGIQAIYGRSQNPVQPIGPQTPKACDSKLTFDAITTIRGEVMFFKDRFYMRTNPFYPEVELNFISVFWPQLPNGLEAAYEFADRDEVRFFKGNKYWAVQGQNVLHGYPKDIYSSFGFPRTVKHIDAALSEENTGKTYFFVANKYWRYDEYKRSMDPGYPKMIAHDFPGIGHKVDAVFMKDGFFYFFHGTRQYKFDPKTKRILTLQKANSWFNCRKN

Collagenase 3 [2] = biological target: T1, Collagenase 3; test: Binding affinity for matrix metalloprotease 13
[3] = biological target: Matrix metalloproteinase-9 (Homo sapiens, UniProt P14780); test: Inhibition of matrix metalloprotease-9
Sequence of Matrix metalloproteinase-9 (P14780 whole entry, the tested form may be a part): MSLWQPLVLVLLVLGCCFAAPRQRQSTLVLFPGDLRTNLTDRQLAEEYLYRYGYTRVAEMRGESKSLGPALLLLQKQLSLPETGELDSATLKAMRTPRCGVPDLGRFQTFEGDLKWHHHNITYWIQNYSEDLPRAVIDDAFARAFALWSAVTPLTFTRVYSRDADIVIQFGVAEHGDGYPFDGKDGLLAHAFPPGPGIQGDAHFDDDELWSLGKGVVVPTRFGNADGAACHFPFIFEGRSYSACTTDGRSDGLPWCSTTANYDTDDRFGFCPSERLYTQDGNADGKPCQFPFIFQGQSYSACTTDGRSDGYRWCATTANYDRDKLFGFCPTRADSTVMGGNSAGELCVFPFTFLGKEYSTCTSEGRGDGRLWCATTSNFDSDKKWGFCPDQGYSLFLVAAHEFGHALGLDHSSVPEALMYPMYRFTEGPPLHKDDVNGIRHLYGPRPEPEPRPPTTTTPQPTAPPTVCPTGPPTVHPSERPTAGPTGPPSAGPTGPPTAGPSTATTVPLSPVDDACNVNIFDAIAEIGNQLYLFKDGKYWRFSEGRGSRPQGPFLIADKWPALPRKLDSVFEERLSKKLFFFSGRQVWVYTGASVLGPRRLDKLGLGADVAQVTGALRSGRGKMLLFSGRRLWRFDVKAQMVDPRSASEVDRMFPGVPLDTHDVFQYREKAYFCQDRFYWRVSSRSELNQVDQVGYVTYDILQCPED

[4] = biological target: Disintegrin and metalloproteinase domain-containing protein 17 (Homo sapiens, UniProt P78536); test: Inhibition of TNF-alpha converting enzyme (TACE, ADAM17)
Sequence of Disintegrin and metalloproteinase domain-containing protein 17 (P78536 whole entry, the tested form may be a part): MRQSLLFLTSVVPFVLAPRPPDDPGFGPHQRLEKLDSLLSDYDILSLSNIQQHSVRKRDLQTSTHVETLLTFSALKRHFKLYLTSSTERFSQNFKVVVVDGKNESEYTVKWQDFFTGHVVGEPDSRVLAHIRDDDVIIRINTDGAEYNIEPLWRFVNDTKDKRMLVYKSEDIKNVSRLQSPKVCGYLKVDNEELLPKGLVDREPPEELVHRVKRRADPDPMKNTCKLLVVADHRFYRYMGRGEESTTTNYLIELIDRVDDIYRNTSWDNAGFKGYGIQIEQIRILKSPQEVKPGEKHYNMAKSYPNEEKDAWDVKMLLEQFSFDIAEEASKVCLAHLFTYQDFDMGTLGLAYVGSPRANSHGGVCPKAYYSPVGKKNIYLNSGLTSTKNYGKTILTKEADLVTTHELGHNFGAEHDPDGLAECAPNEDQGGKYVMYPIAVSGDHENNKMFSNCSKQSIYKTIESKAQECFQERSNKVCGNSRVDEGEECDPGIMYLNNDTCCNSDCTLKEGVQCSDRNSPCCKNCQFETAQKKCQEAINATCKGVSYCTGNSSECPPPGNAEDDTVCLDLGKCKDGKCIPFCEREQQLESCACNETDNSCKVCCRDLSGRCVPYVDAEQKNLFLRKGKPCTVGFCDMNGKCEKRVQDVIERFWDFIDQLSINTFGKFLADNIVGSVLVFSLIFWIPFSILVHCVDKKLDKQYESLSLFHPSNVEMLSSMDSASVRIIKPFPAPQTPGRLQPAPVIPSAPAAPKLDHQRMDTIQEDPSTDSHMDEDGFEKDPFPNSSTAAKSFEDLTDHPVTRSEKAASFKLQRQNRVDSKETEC

Stromelysin-1 = Stromelysin-1 (Homo sapiens, UniProt P08254); test: Inhibition of matrix metalloprotease-3
Sequence of Stromelysin-1 (P08254 whole entry): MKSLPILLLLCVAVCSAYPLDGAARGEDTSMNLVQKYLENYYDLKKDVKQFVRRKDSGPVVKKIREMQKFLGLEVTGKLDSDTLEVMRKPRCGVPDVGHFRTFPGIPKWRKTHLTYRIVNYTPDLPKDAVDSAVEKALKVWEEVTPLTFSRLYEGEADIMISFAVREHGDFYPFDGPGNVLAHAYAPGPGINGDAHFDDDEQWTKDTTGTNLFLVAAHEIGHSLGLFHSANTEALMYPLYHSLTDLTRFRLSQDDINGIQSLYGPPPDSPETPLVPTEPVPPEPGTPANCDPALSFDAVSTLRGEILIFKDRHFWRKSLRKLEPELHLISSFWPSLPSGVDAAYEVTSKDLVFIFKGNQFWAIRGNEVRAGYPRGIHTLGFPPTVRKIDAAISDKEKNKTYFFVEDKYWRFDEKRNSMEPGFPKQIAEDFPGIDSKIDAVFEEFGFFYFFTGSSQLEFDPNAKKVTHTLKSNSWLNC

[5] = biological target: 72 kDa type IV collagenase (Homo sapiens, UniProt P08253); test: Inhibition of matrix metalloprotease-2
Sequence of 72 kDa type IV collagenase (P08253 whole entry): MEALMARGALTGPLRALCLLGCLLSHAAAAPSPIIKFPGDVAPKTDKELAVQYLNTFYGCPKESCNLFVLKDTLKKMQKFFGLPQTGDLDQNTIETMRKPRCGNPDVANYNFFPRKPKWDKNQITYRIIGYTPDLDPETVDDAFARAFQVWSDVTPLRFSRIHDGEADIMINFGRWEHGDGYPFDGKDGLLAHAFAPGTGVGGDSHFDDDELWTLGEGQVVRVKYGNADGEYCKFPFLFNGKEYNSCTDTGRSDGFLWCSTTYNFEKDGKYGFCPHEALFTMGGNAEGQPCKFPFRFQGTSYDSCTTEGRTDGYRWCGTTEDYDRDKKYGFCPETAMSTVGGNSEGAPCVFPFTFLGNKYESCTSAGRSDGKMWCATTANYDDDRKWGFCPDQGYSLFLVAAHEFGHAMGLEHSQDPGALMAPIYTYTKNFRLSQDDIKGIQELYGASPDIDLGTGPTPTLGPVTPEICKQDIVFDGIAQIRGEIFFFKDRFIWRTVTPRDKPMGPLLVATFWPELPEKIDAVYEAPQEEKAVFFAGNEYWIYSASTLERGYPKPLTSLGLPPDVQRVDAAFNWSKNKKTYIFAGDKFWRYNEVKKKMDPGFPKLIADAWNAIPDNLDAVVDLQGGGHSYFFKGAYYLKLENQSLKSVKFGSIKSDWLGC

SMILES	Ki (Collagenase 3 [1]) [nM]	Ki (Interstitial collagenase) [nM]	Ki (Collagenase 3 [2]) [nM]	Ki [3] [nM]	Ki [4] [nM]	Ki (Stromelysin-1) [nM]	Ki [5] [nM]
O=C1NC(=O)C2(CCC(=O)N2c2ccc(-c3ccccc3)cc2)C(=O)N1	934						
O=C1NC(=O)C2(CCC(=O)N2c2ccc(Br)cc2)C(=O)N1	130						
O=C1NC(=O)C2(CCC(=O)N2c2ccc(Oc3ccc4c(c3)OCO4)cc2)C(=O)N1	5.8						
CCC1CC(=O)N(c2ccc(Oc3ccccc3)cc2)C12C(=O)NC(=O)NC2=O (single isomer, unassigned)		> 5000	4.1	7.2	> 1000	1200	1.7
CCC1CC(=O)N(c2ccc(Oc3ccccc3)cc2)C12C(=O)NC(=O)NC2=O (stereo in doubt)		> 5000	0.54	0.87	> 1000	92	0.4
O=C1NC(=O)C2(CCC(=O)N2c2ccc(Oc3ccccc3)cc2)C(=O)N1	4.7	> 5000		4.7	> 1000	4500	1.6
COC(=O)c1ccc(Oc2ccc(N3C(=O)CCC34C(=O)NC(=O)NC4=O)cc2)cc1	4.2	> 5000		1.2	> 1000	1300	4.7
O=C1NC(=O)C2(CCC(=O)N2c2ccc(OCc3ccccc3)cc2)C(=O)N1	1100						
COc1cccc(Oc2ccc(N3C(=O)CCC34C(=O)NC(=O)NC4=O)cc2)c1	1.9						
O=C1NC(=O)C2(CCC(=O)N2c2ccccc2)C(=O)N1	2200						
COc1ccncc1Oc1ccc(N2C(=O)CCC23C(=O)NC(=O)NC3=O)cc1	25						
O=C1NC(=O)C2(CCC(=O)N2c2ccc(Oc3ccc(C(=O)O)cc3)cc2)C(=O)N1	2.7	> 5000		0.72	> 1000	3200	0.23
O=C1NC(=O)C2(CCC(=O)N2c2ccc(Oc3ccc(Cl)cc3)cc2)C(=O)N1	0.95	> 5000		0.72	> 1000	430	0.43
O=C1NC(=O)C2(CCC(=O)N2c2ccc(Oc3cccc(Cl)c3)cc2)C(=O)N1	54						
O=C1NC(=O)C2(CCC(=O)N2c2ccc(Oc3ccc(Oc4ccccc4)cc3)cc2)C(=O)N1	0.33	> 5000		1.9	> 1000	110	1.8
COc1ccccc1Oc1ccc(N2C(=O)CCC23C(=O)NC(=O)NC3=O)cc1	110						
